Test results as given in ChEMBL document CHEMBL1147579, “Design, synthesis and evaluation of novel 1,4-naphthoquinone derivatives as antifungal and anticancer agents” (2004).
≈ marks a conversion by molar mass, not a printed value.

How the values were obtained:
Candida albicans = assay: Antifungal activity against Candida albicans; format: functional
Cryptococcus neoformans [1] = assay: Antifungal activity against C. neoformans; No activity; format: functional
[2] = Antifungal activity against Trichophyton mentagrophytes; format: functional, Trichophyton mentagraphytes; settings: Trichophyton benhamiae
Microsporum canis = assay: Antifungal activity against Microsporum canis; format: functional
Rattus norvegicus [3] = assay: Anticancer activity against Walker 256 carcinoma in rat after administration of 10 mg/kg; Activity expressed as % T/C (Active); format: functional
Rattus norvegicus [4] = assay: Anticancer activity against Walker 256 carcinoma cells in rat after administration of 10 mg/kg; Activity expressed as survivors out of 4 rats (Active); format: functional
Aspergillus fumigatus = assay: Antifungal activity against Aspergillus fumigatus; format: functional
Cryptococcus neoformans [5] = assay: Antifungal activity against Cryptococcus neoformans; format: functional
Tolypocladium inflatum = assay: Antifungal activity against Sporotrichum schenckii; format: functional; settings: sporotrichum scenckii
Sporothrix schenckii = assay: Antifungal activity against Sporotrichum schenckii

| Compound | MIC (Candida albicans) | MIC (Cryptococcus neoformans [1]) | MIC [2] | MIC (Microsporum canis) | T/C (Rattus norvegicus [3]) | Survivors (Rattus norvegicus [4]) | MIC (Aspergillus fumigatus) | MIC (Cryptococcus neoformans [5]) | MIC (Tolypocladium inflatum) | MIC (Sporothrix schenckii) |
| --- | --- | --- | --- | --- | --- | --- | --- | --- | --- | --- |
| O=C(O)CCSC1=CC(=O)c2c(O)ccc(O)c2C1=O | 3.12 µg/mL (≈ 10.6 µM) | 1.56 µg/mL (≈ 5.3 µM) | 3.12 µg/mL (≈ 10.6 µM) | 3.12 µg/mL (≈ 10.6 µM) | – | – | – | – | – | – |
| O=C1C=CC(=O)c2c(O)ccc(O)c21 [NAPHTHAZALIN] | – | – | – | – | 37% | 3 µg/mL | – | – | – | – |
| Clc1ccc(COC(Cn2ccnc2)c2ccc(Cl)cc2Cl)c(Cl)c1 (stereo unspecified) [MICONAZOLE] | 25 µg/mL (≈ 60.1 µM) | – | ≤ 0.78 µg/mL | ≤ 0.78 µg/mL | – | – | 12.5 µg/mL (≈ 30 µM) | 12.5 µg/mL (≈ 30 µM) | – | – |
| NYSTATIN | 7.9 µg/mL | – | – | – | – | – | – | 3.9 µg/mL | 13.2 µg/mL | – |
| O=C1c2sc3nccn3c2C(=O)c2c(O)ccc(O)c21 | 25 µg/mL (≈ 87.3 µM) | – | 25 µg/mL (≈ 87.3 µM) | 25 µg/mL (≈ 87.3 µM) | – | – | – | < 12.5 µg/mL | – | < 12.5 µg/mL |
| O=C1c2sc3nccn3c2C(=O)c2c(Cl)ccc(O)c21 | 25 µg/mL (≈ 82 µM) | – | 6.25 µg/mL (≈ 20.5 µM) | 6.25 µg/mL (≈ 20.5 µM) | – | – | 3.1 µg/mL (≈ 10.2 µM) | 6.25 µg/mL (≈ 20.5 µM) | – | – |
| CC1=CC(=O)c2c(O)ccc(O)c2C1=O | – | – | – | – | 23% | 4 | – | – | – | – |
| O=C1C=C(Sc2ccccc2)C(=O)c2ccccc21 | 12.5 µg/mL (≈ 46.9 µM) | – | < 0.78 µg/mL | < 0.98 µg/mL | – | – | 25 µg/mL (≈ 93.9 µM) | 1.56 µg/mL (≈ 5.86 µM) | – | – |
| C[C@@H]1[C@H](O)[C@@H](C)/C=C/C=C/C=C/C=C/C=C/C=C/C=C/[C@H](O[C@@H]2O[C@H](C)[C@@H](O)[C@H](N)[C@@H]2O)C[C@@H]2O[C@](O)(C[C@@H](O)C[C@@H](O)[C@H](O)CC[C@@H](O)C[C@@H](O)CC(=O)O[C@H]1C)C[C@H](O)[C@H]2C(=O)O [AMPHOTERICIN B] | 0.39 µg/mL (≈ 0.422 µM) | – | 1.56 µg/mL (≈ 1.69 µM) | 1.56 µg/mL (≈ 1.69 µM) | – | – | – | 0.78 µg/mL (≈ 0.844 µM) | – | – |
| O=C1C(CO)=C(Sc2ccccc2)C(=O)c2ccccc21 | 25 µg/mL (≈ 84.4 µM) | – | 1.56 µg/mL (≈ 5.26 µM) | 1.56 µg/mL (≈ 5.26 µM) | – | – | < 0.78 µg/mL | 1.56 µg/mL (≈ 5.26 µM) | – | – |
| O=C1c2ccccc2C(=O)c2c1sc1nccn21 | 50 µg/mL (≈ 197 µM) | – | 25 µg/mL (≈ 98.3 µM) | 25 µg/mL (≈ 98.3 µM) | – | – | 25 µg/mL (≈ 98.3 µM) | 12.5 µg/mL (≈ 49.2 µM) | – | 25 µg/mL (≈ 98.3 µM) |
